Experimental findings from ChEMBL document CHEMBL1201862, “PubChem BioAssay data set” (2004) are described below.

The source made the active and inactive calls.

For experiment [1], the target named is T1, CAAX prenyl protease 2 (Saccharomyces cerevisiae S288c, UniProt Q03530).
T1 sequence (Q03530 whole entry): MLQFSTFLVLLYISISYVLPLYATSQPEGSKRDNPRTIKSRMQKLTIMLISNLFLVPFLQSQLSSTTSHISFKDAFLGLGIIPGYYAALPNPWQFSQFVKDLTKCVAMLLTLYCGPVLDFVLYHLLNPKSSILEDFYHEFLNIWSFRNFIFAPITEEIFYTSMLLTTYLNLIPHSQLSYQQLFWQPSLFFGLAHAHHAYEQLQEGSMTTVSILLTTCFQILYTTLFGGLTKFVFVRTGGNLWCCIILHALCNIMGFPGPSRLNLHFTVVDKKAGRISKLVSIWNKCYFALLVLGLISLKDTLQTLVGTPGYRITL
Format: biochemical.

Experiment [2] addresses T1, CAAX prenyl protease 2. In words: inhibition of Rce1p peptide cleavage – biochemical, plate reader, dry powder retest, dose response (AID 588851).
Experiment [3] concerns the target Glycogen synthase kinase-3 alpha (Homo sapiens, UniProt P49840). In words: Inhibition of Human GSK-3 alpha Activity Measured in Biochemical System Using Microfluidics - 2063-06_Inhibitor_Dose_DryPowder_Activity_Set2. [Related pubchem assays (depositor defined):AID2709].
Experiment [4] has as its target Glycogen synthase kinase-3 beta (Homo sapiens, UniProt P49841). In words: Inhibition of Human GSK-3 beta Activity Measured in Biochemical System Using Microfluidics - 2063-05_Inhibitor_Dose_DryPowder_Activity_Set2. [Related pubchem assays (depositor defined):AID2709].
The nature of experiment [5]: fluconazole-exposed Candida albicans growth modulators – fluorescence, retest, confirmation (AID 2467). The class given is functional, cell-based.
Experiment [6] is described as follows: Trypanosoma cruzi growth suppression in host cells – NIH3T3 host cells, beta-gal luminescence, confirmation (AID 2044).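 Note: intracellular parasites grown in NIH/3T3 mouse fibroblasts as host cells; luminescent beta-galactosidase reporter signal from transgenic T. cruzi replicating inside host cells; inhibitors lower the luminescence signal.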 The class given is functional, cell-based.
For experiment [7], the target named is Protein Wnt-3a (Mus musculus, UniProt P27467). Put plainly: antagonism of Wnt3a pathway luciferase reporter – Wnt-LIGHT cells, luminescence, selectivity assay for Gli-SUFU antagonist project, dose response (AID 651570).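 Note: Wnt-LIGHT reporter cells stimulated with conditioned medium from Wnt3a-producing cells.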 Format: functional. The following applies: read-out: IC50_Mean.
Chain of Protein Wnt-3a (P27467 whole entry): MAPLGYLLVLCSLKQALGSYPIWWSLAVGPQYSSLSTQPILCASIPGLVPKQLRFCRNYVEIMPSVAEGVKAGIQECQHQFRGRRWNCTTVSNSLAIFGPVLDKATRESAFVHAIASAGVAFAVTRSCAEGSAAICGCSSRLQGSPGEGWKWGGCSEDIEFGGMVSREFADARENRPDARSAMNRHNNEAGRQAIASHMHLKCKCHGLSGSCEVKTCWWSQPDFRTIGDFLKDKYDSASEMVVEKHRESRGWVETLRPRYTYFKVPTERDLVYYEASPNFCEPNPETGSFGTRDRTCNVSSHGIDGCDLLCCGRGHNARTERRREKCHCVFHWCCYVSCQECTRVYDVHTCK
Experiment [8] deals with Serine/threonine-protein phosphatase (Candida dubliniensis (strain CD36 / CBS 7987 / NCPF 3949 / NRRLY-17841) (Yeast), UniProt B9W6M3). Put plainly: blockers of CaCl2-induced CDRE-lacZ signaling – S. cerevisiae, luminescence, secondary, dose response (AID 2388).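 Note: yeast reporter cells carrying a calcineurin-responsive lacZ construct stimulated with calcium chloride; luminescent beta-galactosidase reporter signal in whole cells rather than isolated phosphatase activity; potency for inhibition where a drop in reporter signal means calcineurin blockade.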 The class given is functional, cell-based.
Chain of Serine/threonine-protein phosphatase (B9W6M3 whole entry): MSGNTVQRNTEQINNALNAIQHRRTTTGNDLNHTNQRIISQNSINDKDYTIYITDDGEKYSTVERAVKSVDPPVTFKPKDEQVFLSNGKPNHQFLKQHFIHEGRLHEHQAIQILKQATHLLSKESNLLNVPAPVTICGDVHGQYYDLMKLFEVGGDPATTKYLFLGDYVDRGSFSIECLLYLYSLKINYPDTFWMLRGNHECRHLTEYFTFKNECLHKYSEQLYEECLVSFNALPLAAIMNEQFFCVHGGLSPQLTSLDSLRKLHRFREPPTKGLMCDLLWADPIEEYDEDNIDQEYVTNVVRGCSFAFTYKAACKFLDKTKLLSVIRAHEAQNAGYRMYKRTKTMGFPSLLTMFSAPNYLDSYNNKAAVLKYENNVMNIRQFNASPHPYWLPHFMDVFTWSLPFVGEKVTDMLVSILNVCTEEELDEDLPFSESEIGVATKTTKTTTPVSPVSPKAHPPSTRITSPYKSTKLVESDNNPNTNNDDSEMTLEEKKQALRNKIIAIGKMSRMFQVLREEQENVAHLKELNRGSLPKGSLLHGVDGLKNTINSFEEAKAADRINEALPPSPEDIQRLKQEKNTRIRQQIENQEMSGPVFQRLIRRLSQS
Experiment [9] has as its system Candida albicans. Put plainly: resistant Candida growth with fluconazole co-treatment – CaCi-8 strain, Alamar Blue, dry powder, set 2, dose response (AID 488909). The class given is functional, organism-based. A general note: Alamar Blue is a resazurin reagent that responds to reducing activity.
Experiment [10] concerns HEK293. Put plainly: EBV LMP1 TES2 canonical NF-kB signalling blockers – cell-based, HEK293, luciferase, cherry-pick, dose response (AID 588343). Format: functional. The following applies: Homo sapiens.
In experiment [11] the test system is Candida albicans. In words: Candida growth effect without fluconazole – C. albicans CaCi-2, dry powder, counter-screen for antifungal drug resistance project, dose response (AID 488802). Format: functional, organism-based. Background: The purpose of a counterscreen is to sort out artefacts and off-target activity.
In experiment [12] the test system is Candida albicans. Put plainly: C. albicans growth inhibition with fluconazole – CaCi-2 strain, Alamar Blue, dry powder, set 4, dose response (AID 488943). The class given is functional, organism-based.
Experiment [13] concerns Candida albicans. Put plainly: Candida growth reduction in fluconazole presence – CaCi-2 strain, Alamar Blue, dry powder, set 2, antifungal resistance reversal project, dose response (AID 488930). Format: functional, organism-based.
Experiment [14] relates to Candida albicans. Put plainly: antifungal activity against resistant Candida strain – CaCi-8, fluconazole, Alamar Blue, dry powder, dose response (AID 488807). Format: functional, organism-based.
For experiment [15], the target named is ATP-dependent molecular chaperone HSP82 (Candida albicans (strain WO-1) (Yeast), UniProt C4YTQ8). In words: steroid-induced GRE reporter decrease in yeast – S. cerevisiae, luminescence, Hsp90 inhibitor project, dose response (AID 2400).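 Note: beta-galactosidase luminescence from glucocorticoid response element reporter as proxy for Hsp90 function; inhibitor potency where signal loss means Hsp90 inhibition.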 Format: functional, cell-based.
Chain of ATP-dependent molecular chaperone HSP82 (C4YTQ8 whole entry): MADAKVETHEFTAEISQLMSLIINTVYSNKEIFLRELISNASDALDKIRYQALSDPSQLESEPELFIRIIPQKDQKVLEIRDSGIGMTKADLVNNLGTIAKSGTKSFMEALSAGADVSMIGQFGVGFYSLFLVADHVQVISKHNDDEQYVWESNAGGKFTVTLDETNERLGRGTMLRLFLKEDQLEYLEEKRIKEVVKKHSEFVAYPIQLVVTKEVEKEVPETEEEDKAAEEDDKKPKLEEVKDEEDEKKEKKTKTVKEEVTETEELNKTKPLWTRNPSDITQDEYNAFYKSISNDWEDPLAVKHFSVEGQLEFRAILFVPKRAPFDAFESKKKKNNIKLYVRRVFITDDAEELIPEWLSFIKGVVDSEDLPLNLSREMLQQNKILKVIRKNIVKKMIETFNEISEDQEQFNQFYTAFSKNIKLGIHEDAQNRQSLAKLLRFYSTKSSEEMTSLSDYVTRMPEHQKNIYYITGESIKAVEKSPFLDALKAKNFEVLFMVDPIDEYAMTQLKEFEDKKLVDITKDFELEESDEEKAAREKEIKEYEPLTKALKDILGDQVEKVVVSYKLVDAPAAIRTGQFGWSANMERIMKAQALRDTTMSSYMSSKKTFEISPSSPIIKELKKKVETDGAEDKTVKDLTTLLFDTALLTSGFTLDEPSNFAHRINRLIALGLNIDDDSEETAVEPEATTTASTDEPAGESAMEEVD
The nature of experiment [16]: NIH-3T3 fibroblast cytotoxicity, dose response, cytotoxicity control, cell-based, fluorescence, Alamar Blue, secondary assay (AID 2327).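 Note: NIH-3T3 mouse fibroblasts cultured with fluconazole at 8 µg/mL.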 Format: functional.
A short description of experiment [17]: NIH3T3 cell viability loss – ATP luminescence, mouse fibroblasts, counter-screen, dose response (AID 2010).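 Note: cells exposed to compound for about 90 hours before reading.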 The class given is functional, cell-based.
The subject of experiment [18] is NIH3T3. Put plainly: mammalian cell viability counter-check – Alamar Blue, fluconazole, dry powder, cytotoxicity control for antifungal drug resistance project, dose response (AID 488809). To be noted: Mus musculus. The class given is functional, cell-based.
Experiment [19] has as its target DNA topoisomerase (Yersinia pestis, UniProt A0A2S9PM60). In words: Yersinia topoisomerase I cleavage product accumulation – biochemical, cherry-pick, dose response (AID 588525).

Usually AC50 stands for the midpoint of the concentration-response curve, whichever way the signal moves. The term EC50 denotes the concentration needed to bring the measured effect to its halfway point.

Chain of Glycogen synthase kinase-3 beta (P49841 whole entry): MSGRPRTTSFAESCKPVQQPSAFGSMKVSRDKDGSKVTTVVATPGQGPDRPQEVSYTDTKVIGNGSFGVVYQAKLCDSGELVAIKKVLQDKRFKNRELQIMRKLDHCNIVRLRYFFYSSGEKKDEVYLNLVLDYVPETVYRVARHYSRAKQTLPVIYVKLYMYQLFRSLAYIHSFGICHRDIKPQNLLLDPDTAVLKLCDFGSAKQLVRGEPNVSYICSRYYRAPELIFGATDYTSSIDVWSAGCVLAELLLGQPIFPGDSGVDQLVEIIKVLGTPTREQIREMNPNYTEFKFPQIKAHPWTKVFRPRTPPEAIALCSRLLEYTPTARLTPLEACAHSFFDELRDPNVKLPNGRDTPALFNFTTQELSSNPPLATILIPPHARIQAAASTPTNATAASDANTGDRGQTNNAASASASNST
Chain of Glycogen synthase kinase-3 alpha (P49840 whole entry): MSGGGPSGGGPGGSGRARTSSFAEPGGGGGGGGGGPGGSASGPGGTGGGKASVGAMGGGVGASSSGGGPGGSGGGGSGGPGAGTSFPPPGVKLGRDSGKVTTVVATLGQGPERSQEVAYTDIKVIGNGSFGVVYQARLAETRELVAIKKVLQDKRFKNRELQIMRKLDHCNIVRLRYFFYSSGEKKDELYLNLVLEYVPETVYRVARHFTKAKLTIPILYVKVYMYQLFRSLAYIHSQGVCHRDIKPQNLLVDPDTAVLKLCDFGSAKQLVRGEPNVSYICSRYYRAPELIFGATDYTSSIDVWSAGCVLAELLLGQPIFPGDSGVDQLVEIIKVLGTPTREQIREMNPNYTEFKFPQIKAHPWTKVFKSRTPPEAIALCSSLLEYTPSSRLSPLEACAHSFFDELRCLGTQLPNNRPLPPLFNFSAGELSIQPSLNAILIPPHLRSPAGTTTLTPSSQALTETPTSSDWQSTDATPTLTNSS
Chain of DNA topoisomerase (A0A2S9PM60 whole entry): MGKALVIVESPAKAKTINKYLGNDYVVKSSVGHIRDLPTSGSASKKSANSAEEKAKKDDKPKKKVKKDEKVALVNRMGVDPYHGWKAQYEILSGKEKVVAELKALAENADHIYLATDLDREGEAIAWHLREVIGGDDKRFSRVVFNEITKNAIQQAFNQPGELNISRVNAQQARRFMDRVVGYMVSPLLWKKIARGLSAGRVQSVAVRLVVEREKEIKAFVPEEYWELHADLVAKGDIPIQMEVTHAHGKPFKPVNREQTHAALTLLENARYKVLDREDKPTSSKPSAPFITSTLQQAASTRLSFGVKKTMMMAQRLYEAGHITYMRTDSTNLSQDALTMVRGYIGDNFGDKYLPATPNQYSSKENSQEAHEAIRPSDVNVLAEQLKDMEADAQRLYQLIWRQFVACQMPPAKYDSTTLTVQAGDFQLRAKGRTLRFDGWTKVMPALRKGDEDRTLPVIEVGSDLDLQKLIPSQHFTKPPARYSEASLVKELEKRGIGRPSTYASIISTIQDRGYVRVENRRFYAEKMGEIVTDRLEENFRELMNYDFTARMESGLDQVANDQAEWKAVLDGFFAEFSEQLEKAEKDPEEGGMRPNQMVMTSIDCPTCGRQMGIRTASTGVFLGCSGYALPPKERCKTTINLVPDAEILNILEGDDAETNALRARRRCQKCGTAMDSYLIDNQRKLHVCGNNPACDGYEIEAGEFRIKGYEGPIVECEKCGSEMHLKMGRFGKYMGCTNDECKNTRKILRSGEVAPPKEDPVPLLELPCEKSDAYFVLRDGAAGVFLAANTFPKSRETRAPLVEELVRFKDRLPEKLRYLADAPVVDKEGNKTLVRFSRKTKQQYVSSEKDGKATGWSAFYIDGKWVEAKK

As to `CN(C(=O)COC(=O)c1cn(-c2ccccc2)nc1-c1ccccc1)C1CCS(=O)(=O)C1` (stereo not given), the AC50 in experiment [1] was 0.679 µM (active); in [2] it was 25.1 µM (active).

With `COC(=O)c1nnn(-c2nonc2N)c1CSc1nc2ccccc2s1`, the AC50 in experiment [3] is 4.24 µM (active); in [4], 1.31 µM (active).

Regarding `O=C(c1ccc(Cl)cc1)N1CCN(c2ccnc3cc(Cl)ccc23)CC1`, the concentration giving a half-maximal response (EC50) is 0.742 µM (active) in experiment [5]; 1.34 µM (active) in [6]; > 180 µM (inactive) in experiment [8]; > 150 µM (inactive) in experiment [15]; > 150 µM (inactive) in [16]; > 60 µM (not active) in experiment [17]. Further, the IC50 in experiment [7] is 8.3 µM (active). For the same molecule, the AC50 in experiment [9] was 3.46 µM (active); in experiment [10], 16.4 µM (active); in [11], 3.73 µM (active); in [12], 0.306 µM (active); in [12] (Candida albicans) it was 0.362 µM (active); in experiment [13] it was 0.522 µM (active). In addition, the AC50 in experiment [14] was 0.87 µM (active); in experiment [18], 22.9 µM (active).

Regarding `Cc1ccc(SCc2cc(O)nc(Nc3nc(C)c4ccc(C)cc4n3)n2)cc1`, the AC50 in experiment [19] was 2.96 µM (active).
